Laboratory results: patent publication US20130225623A1, “Methods of Treating Psychiatric or Neurological Disorders with MGLUR Antagonists” (MOUNT SINAI SCHOOL OF MEDICINE, priority 2010, published 2013)
Where “and” joins values, the source holds several entries; their conditions need not be identical. Equal entries are not always repeated.

Assays:
Format in all cases: cell-based, mouse
[1] = test system: field EPSPs in hippocampal slices (area CA1); group I mGluRs; test: DHPG-induced long-term depression (mGluR-LTD), hippocampal slice electrophysiology; conditions: for depression in synaptic transmission (field EPSP slope): at 30 min of application; for effect of mGluR blockade on DHPG-induced LTD: Cyfip1 heterozygotes, slices incubated with antagonist and DHPG (MPEP 10 μM; LY367385 100 μM)
Procedure: (§1) Hippocampal slices (350 μm) were prepared from 4-6 week old heterozygous mice and their wild-type littermate controls. Slices were perfused with Ringer's solution containing (in mM): NaCl, 125.0; KCl, 2.5; MgSO4, 1.3; NaH2PO4, 1.0; NaHCO3, 26.2; CaCl2, 2.5; glucose, 11.0. The Ringer's solution was bubbled with 95% O2/5% CO2, at 32° C., during extracellular recordings (electrode solution: 3 M NaCl). Slices were maintained for 1 hr prior to establishment of a baseline of field excitatory postsynaptic potentials (fEPSPs) recorded from stratum radiatum in area CA1, evoked by stimulation of the Schaffer collateral-commissural afferents (100 μs pulses every 30 s) with bipolar tungsten electrodes placed into area CA3 (Bozdagi et al., 2000). Test stimulus intensity was adjusted to obtain fEPSPs with amplitudes that were one-half of the maximal response. The EPSP initial slope (mV/ms) was determined from the average waveform of four consecutive responses. Cycloheximide (60 μM, Sigma), dihydroxyphenylglycine (DHPG, 50 μM, Sigma), 2-methyl-6-phenylethynyl-pyridine (MPEP, 10 μM, Tocris), LY367385 (100 μM, Tocris), or rapamycin (20 nM, Enzo Life Sciences) were bath-applied for various durations as described in the Examples, below.
(§2) All experiments were performed in the presence of 100 μM 2-amino-5-phosphopentanoic acid (AP5). Paired-pulse responses were measured with interstimulus interval (ISI) of 50 ms, and are expressed as the ratio of the average responses to the second stimulation pulse (FP2) to the first stimulation pulse (FP1). LTP was induced by either a high-frequency stimulus (four trains of 100 Hz, 1 s stimulation separated by 5 min), a threshold levels of theta-burst stimulation (TBS) (5 bursts of four pulses at 100 Hz separated by 200 ms, (Lauterborn et al., 2007), or a single 100 Hz stimulation. To induce an mGluR-dependent LTD, Schaffer collaterals were stimulated by a paired-pulse low-frequency-stimulation (PP-LFS, 1 Hz for 20 min; 50 ms interstimulus interval (Huber et al., […]). DHPG-induced LTD was also used as described in the Examples, below
The mammalian target of rapamycin (mTOR) is an important regulator of translation in long-lasting forms of synaptic plasticity and it has been shown that DHPG-induced mGluR-LTD in hippocampal area CA1 is dependent on mTOR (see Richter and Klann, 2009). To determine whether mTOR is required for mGluR-LTD in Cyfip1 heterozygous mice, hippocampal slices were treated with DHPG in the presence of the mTOR inhibitor rapamycin.
Because mGluR5 activation is essential for mGluR-LTD induction, the effect of mGluR5 blockade on DHPG-induced LTD was examined. […] The effect of mGluR1 blockade on DHPG-induced LTD was also examined. […] The slices were next treated with both mGluR1 (LY367385) and mGluR5 (MPEP) antagonists.

[2] = test system: field EPSPs at Schaffer collateral-CA1 synapses in acute hippocampal slices; test: Paired-pulse low frequency stimulation (PP-LFS)-induced mGluR-LTD, hippocampal slice electrophysiology; conditions: for effect on PP-LFS-induced LTD: cycloheximide 60 μM; for field EPSP slope: in the presence of cycloheximide (60 μM), at 60 min after PP-LFS
Procedure: as §1, §2
To examine the role of CYFIP1 in mGluR-LTD, field EPSPs were recorded at Schaffer collateral-CA1 synapses in acute hippocampal slices prepared from wild-type and Cyfip1 heterozygous mice.
One of the most striking abnormalities in experimental synaptic plasticity observed in the absence of FMRP is that mGluR-LTD is independent of protein synthesis in these animals. As the Cyfip1 heterozygotes have enhanced LTD, similar to what is observed in the absence of FMRP, mGluR-LTD in the presence of the protein synthesis inhibitor cycloheximide was examined.

[3] = test system: field EPSPs in hippocampal slices (area CA1); test: Protein synthesis-dependent LTP induced by high frequency stimulation (HFS), hippocampal slice electrophysiology

SMILES: NC(C(=O)O)c1cc(O)cc(O)c1 (racemic) [DHPG, (RS)-3,5-dihydroxyphenylglycine]
- depression in synaptic transmission (field EPSP slope) ([1]; Cyfip1 heterozygous mice, DHPG 50 μM): 70.5±6 % of baseline
- depression in synaptic transmission (field EPSP slope) ([1]; wild-type mice, DHPG 50 μM): 81.2±3 % of baseline

SMILES: Cc1cc(C(=O)O)ccc1[C@H](N)C(=O)O [LY367385]
- effect of mGluR blockade on DHPG-induced LTD [1]: did not cause any change

SMILES: Cc1cccc(C#Cc2ccccc2)n1 [MPEP, 2-methyl-6-(phenylethynyl)-pyridine]
- effect of mGluR blockade on DHPG-induced LTD [1]: did not cause any change

SMILES: C[C@@H]1C[C@@H]([C@H](O)CC2CC(=O)NC(=O)C2)C(=O)[C@@H](C)C1 [cycloheximide]
- effect on PP-LFS-induced LTD ([2]; Cyfip1 heterozygous animals): not affected
- field EPSP slope ([2]; Cyfip1 heterozygous slices): 68.49±8.9 % of baseline
- effect on PP-LFS-induced LTD ([2]; wild-type littermate controls): inhibited LTD
- field EPSP slope ([2]; wild-type slices): 98.05±2.5 % of baseline
- field EPSP slope [3]: 99±8 % of baseline and 100.8±8.2 % of baseline
- inhibition of protein synthesis-dependent LTP, comparison between genotypes ([3]; wild-type vs Cyfip1 heterozygous mice, cycloheximide 60 μM, rapamycin 20 nM): did not differ between genotypes
- effect on DHPG-induced LTD ([1]; wild-type mice, 60 μM cycloheximide, DHPG 50 μM): reduced LTD
